Test systems include A549 NSCLC; KM12 colon; TK-10 renal; BT-549 breast; SK-MEL-28 melanoma; SK-OV-3 ovarian; MOLT-4 leukemia; SNB-19 CNS; SF-268 CNS; MCF7 breast.
Holding throughout (test): inhibition of tumour cell growth, NCI panel, 48 h

Where “and” joins values, the source holds several entries; their conditions need not be identical. Equal values may be shown once.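 These data come from cells grown in 96-well plates and exposed to compound for 48 hours at five concentrations. At the GI50, growth is halved. The concentration for full growth arrest is given as TGI.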

In the case of `Cc1nn(-c2ccc(S(=O)(=O)[O-])cc2)c([O-])c1N=[N+](C)c1ccc(-c2ccc(N=Nc3ccc4c(S(=O)(=O)[O-])cc(S(=O)(=O)[O-])c(N)c4c3[O-])c([O-])c2)cc1[O-].[Cu+2].[Cu+2].[Na+]`, the GI50 in the experiment with A549 NSCLC, in the experiment on KM12 colon, in the experiment on TK-10 renal, with BT-549 breast, with SK-MEL-28 melanoma and in the experiment with SK-OV-3 ovarian was greater than 100 µM throughout. For the same compound, the GI50 in the experiment on MOLT-4 leukemia, with SNB-19 CNS, in the experiment with SF-268 CNS and with MCF7 breast was greater than 100 µM each time. In addition, the TGI in the experiment with A549 NSCLC, in the experiment on KM12 colon, in the experiment on TK-10 renal, with BT-549 breast, with SK-MEL-28 melanoma and in the experiment with SK-OV-3 ovarian was greater than 100 µM throughout. The TGI in the experiment on MOLT-4 leukemia, with SNB-19 CNS, in the experiment with SF-268 CNS and with MCF7 breast was greater than 100 µM throughout.
Consider `COc1ccc(NC(=O)Nc2n[nH]c3ccccc23)cc1`, for which the GI50 in the experiment with A549 NSCLC, in the experiment on KM12 colon, with TK-10 renal, in the experiment on BT-549 breast, in the experiment with SK-MEL-28 melanoma and in the experiment on SK-OV-3 ovarian was greater than 100 µM each time. For the same compound, the GI50 in the experiment with MOLT-4 leukemia, in the experiment on SNB-19 CNS, in the experiment with SF-268 CNS and in the experiment on MCF7 breast was greater than 100 µM in each case. The TGI in the experiment on A549 NSCLC, in the experiment on KM12 colon, with TK-10 renal, with BT-549 breast, in the experiment on SK-MEL-28 melanoma and in the experiment on SK-OV-3 ovarian was greater than 100 µM each time. For the same compound, the TGI with MOLT-4 leukemia, in the experiment with SNB-19 CNS, in the experiment with SF-268 CNS and in the experiment with MCF7 breast was greater than 100 µM throughout.
As for `CC(=O)Nc1cccc(-n2c(=O)n(C3CC3)c(=O)c3c(Nc4ccc(I)cc4F)n(C)c(=O)c(C)c32)c1`, the GI50 in the experiment on A549 NSCLC was 0.0345 µM and 0.122 µM; with KM12 colon, 0.0102 µM and 0.0225 µM; in the experiment with TK-10 renal, < 0.0144 µM and 0.00977 µM; in the experiment with BT-549 breast, 6.33 µM and > 9.61 µM; in the experiment with SK-MEL-28 melanoma, < 0.01 µM and 0.0018 µM; in the experiment with SK-OV-3 ovarian, 8.58 µM. Besides, the GI50 is 6.96 µM and > 9.64 µM with MOLT-4 leukemia; 5.11 µM and > 2.09 µM in the experiment on SNB-19 CNS; 3.85 µM and > 6.08 µM in the experiment on SF-268 CNS; 12.1 µM and > 8.55 µM with MCF7 breast. For the same compound, the TGI is greater than 43.8 µM in the experiment on A549 NSCLC; greater than 53.7 µM with KM12 colon; 20.7 µM and > 10 µM in the experiment with TK-10 renal; 35.5 µM and > 10 µM in the experiment with BT-549 breast; greater than 85.4 µM in the experiment on SK-OV-3 ovarian; greater than 100 µM in the experiment on MOLT-4 leukemia. Further, the results for the TGI in the experiment on SNB-19 CNS, in the experiment on SF-268 CNS and with MCF7 breast were greater than 100 µM, greater than 100 µM and greater than 69.5 µM, respectively.
Regarding `COC(=O)C(=O)CC(=O)CCn1ncc(Cl)c(Cl)c1=O`, the TGI in the experiment on A549 NSCLC was 36.5 µM; in the experiment on KM12 colon it was greater than 74.5 µM; in the experiment with TK-10 renal it was greater than 85.5 µM; with BT-549 breast it was 27.7 µM; in the experiment on SK-MEL-28 melanoma it was 21.9 µM; in the experiment with SK-OV-3 ovarian, 40.8 µM. Also, the TGI was 22.1 µM in the experiment on MOLT-4 leukemia, 32.5 µM in the experiment on SNB-19 CNS, 21.4 µM with SF-268 CNS and greater than 100 µM with MCF7 breast. Besides, the GI50 in the experiment on BT-549 breast is 14.4 µM; in the experiment on MCF7 breast, 15.6 µM.
`Fc1cccc(COc2ccc(Nc3ncncc3C#Cc3ccccc3)cc2Cl)c1`: the GI50 was greater than 25 µM in the experiment on A549 NSCLC; greater than 25 µM in the experiment with KM12 colon; 15 µM with TK-10 renal; greater than 25 µM in the experiment on BT-549 breast; greater than 25 µM in the experiment with SK-MEL-28 melanoma; greater than 25 µM in the experiment with SK-OV-3 ovarian. Further, the GI50 in the experiment with MOLT-4 leukemia, in the experiment on SNB-19 CNS, in the experiment on SF-268 CNS and in the experiment on MCF7 breast was greater than 25 µM throughout. Also, the TGI in the experiment with A549 NSCLC, in the experiment with KM12 colon, in the experiment with TK-10 renal, with BT-549 breast, in the experiment on SK-MEL-28 melanoma and with SK-OV-3 ovarian was greater than 25 µM each time. For the same compound, the TGI with MOLT-4 leukemia, in the experiment on SNB-19 CNS, in the experiment with SF-268 CNS and in the experiment with MCF7 breast was greater than 25 µM in each case.
In the case of `Nc1n[nH]c2ccc([C@@H]3Nc4ccc5[nH]ncc5c4[C@H]4[C@H]5CCC(C5)[C@H]43)cc12`, the GI50 in the experiment with A549 NSCLC was 0.586 µM; with KM12 colon it was 0.406 µM; with TK-10 renal, 8.25 µM; in the experiment on BT-549 breast it was 0.489 µM; in the experiment with SK-MEL-28 melanoma it was 0.91 µM; in the experiment on SK-OV-3 ovarian, 0.823 µM. Moreover, the GI50 is 0.407 µM in the experiment with MOLT-4 leukemia, 0.515 µM in the experiment on SNB-19 CNS, 1.56 µM with SF-268 CNS and 0.363 µM in the experiment on MCF7 breast. In addition, the TGI in the experiment on A549 NSCLC was greater than 100 µM; with KM12 colon it was 10.8 µM; in the experiment on TK-10 renal, greater than 79.5 µM; in the experiment on BT-549 breast, 9.29 µM; in the experiment on SK-MEL-28 melanoma it was greater than 76.3 µM; in the experiment on SK-OV-3 ovarian, greater than 80.1 µM. Further, the TGI with MOLT-4 leukemia is greater than 51.3 µM; in the experiment on SNB-19 CNS, greater than 100 µM; with SF-268 CNS, 43.7 µM; with MCF7 breast, greater than 100 µM.

(Values after PubChem BioAssay (NCI).)
